The values below come from ChEMBL document CHEMBL3991601, “The target landscape of clinical kinase drugs” (Science, 2017).

For one experiment, the target named is T1, Aurora kinase A (Homo sapiens, UniProt O14965).
T1 sequence (O14965 whole entry): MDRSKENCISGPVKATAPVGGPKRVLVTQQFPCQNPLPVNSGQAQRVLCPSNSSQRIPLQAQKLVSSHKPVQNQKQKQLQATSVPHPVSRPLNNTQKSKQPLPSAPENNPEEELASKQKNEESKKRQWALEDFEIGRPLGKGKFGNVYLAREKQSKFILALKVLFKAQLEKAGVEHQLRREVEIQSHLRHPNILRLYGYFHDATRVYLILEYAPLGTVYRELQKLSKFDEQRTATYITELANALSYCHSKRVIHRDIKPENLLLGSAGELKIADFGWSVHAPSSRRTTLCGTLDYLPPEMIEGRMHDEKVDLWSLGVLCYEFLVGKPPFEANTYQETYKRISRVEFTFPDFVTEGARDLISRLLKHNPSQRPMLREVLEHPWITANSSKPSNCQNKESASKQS

The target of experiment [1] is Cyclin-dependent kinase 1 (Homo sapiens, UniProt P06493).
The target in experiment [2] is Cyclin-dependent kinase 12 (Homo sapiens, UniProt Q9NYV4).
Experiment [3] concerns the target T2, ATP-dependent 6-phosphofructokinase, platelet type (Homo sapiens, UniProt Q01813).
T2 sequence (Q01813 whole entry): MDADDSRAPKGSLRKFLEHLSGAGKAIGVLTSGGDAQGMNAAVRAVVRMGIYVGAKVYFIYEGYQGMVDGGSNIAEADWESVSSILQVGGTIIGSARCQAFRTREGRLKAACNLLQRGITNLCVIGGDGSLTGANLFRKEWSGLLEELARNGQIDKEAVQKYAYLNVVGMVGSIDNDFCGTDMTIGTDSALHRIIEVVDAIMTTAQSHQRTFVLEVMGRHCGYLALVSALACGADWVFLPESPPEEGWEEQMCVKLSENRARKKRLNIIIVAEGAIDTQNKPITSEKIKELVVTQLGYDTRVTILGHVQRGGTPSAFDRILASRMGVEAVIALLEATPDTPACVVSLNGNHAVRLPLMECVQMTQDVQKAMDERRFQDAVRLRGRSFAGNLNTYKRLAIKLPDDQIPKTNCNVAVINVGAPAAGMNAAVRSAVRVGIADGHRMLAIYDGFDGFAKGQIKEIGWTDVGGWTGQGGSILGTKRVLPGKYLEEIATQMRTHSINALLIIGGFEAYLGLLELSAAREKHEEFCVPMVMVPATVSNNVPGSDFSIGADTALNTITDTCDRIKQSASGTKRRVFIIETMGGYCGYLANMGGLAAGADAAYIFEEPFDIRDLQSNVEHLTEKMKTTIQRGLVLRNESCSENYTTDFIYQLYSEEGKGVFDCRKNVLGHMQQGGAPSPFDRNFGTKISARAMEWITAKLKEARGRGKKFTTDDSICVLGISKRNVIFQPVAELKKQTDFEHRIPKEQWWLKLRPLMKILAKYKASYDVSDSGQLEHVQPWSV

Experiment [4] addresses T3, Phosphorylase b kinase gamma catalytic chain, liver/testis isoform (Homo sapiens, UniProt P15735).
T3 sequence (P15735 whole entry): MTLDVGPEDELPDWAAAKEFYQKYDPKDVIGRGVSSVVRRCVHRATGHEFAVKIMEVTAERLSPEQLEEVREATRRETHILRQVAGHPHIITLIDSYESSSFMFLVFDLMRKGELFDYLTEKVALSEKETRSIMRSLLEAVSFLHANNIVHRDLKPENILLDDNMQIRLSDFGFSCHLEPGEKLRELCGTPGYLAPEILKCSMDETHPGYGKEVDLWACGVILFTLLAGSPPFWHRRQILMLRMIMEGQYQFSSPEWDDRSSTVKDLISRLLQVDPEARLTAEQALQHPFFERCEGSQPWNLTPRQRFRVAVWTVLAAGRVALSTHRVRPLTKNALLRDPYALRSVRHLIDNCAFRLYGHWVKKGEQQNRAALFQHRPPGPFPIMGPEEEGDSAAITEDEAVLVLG

The next experiment concerns the target T4, ADP/ATP translocase 3 (Homo sapiens, UniProt P12236).
T4 sequence (P12236 whole entry): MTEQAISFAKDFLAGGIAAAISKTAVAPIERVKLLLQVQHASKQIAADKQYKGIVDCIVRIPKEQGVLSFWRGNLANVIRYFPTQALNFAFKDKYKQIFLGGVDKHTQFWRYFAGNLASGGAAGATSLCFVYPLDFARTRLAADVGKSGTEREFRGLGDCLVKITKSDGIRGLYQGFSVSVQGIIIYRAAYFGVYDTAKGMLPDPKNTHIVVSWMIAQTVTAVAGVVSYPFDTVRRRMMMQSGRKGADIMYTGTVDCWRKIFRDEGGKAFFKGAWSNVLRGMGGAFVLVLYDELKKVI

Experiment [5] addresses T5, Serine/threonine-protein kinase TAO3 (Homo sapiens, UniProt Q9H2K8).
T5 sequence (Q9H2K8 whole entry): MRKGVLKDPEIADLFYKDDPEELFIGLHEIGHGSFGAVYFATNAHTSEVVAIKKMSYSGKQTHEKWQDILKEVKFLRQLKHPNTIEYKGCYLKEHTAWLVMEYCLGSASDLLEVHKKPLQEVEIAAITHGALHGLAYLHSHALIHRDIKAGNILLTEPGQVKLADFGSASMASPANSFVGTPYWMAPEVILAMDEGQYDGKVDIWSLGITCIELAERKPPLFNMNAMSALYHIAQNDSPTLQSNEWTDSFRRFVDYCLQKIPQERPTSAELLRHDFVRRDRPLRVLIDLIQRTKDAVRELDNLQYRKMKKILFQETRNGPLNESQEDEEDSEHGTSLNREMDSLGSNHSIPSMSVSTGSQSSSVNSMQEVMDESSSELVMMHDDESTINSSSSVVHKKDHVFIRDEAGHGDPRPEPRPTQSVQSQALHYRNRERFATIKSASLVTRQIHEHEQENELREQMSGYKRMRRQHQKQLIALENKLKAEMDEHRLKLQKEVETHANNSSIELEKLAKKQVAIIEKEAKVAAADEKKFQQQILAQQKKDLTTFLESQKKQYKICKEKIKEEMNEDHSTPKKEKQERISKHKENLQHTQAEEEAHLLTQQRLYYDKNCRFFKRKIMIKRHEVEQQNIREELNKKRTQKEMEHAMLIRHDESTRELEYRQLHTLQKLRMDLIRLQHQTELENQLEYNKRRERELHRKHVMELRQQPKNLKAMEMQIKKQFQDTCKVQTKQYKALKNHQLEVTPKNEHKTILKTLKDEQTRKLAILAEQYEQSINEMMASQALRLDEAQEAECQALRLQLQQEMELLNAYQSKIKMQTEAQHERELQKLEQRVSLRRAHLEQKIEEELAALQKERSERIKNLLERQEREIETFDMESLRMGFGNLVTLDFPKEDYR

In experiment [6] the target is Tyrosine-protein kinase Yes (Homo sapiens, UniProt P07947).

Structures are written as SMILES. The source made the active and inactive calls. Cut-off read from the data, not from the text of the source, for most assays here: actives have a measured Kd and inactives only a lower limit.
Note: in the data inactive means no Kd found up to 30 µM.

Chain of Cyclin-dependent kinase 12 (Q9NYV4 whole entry): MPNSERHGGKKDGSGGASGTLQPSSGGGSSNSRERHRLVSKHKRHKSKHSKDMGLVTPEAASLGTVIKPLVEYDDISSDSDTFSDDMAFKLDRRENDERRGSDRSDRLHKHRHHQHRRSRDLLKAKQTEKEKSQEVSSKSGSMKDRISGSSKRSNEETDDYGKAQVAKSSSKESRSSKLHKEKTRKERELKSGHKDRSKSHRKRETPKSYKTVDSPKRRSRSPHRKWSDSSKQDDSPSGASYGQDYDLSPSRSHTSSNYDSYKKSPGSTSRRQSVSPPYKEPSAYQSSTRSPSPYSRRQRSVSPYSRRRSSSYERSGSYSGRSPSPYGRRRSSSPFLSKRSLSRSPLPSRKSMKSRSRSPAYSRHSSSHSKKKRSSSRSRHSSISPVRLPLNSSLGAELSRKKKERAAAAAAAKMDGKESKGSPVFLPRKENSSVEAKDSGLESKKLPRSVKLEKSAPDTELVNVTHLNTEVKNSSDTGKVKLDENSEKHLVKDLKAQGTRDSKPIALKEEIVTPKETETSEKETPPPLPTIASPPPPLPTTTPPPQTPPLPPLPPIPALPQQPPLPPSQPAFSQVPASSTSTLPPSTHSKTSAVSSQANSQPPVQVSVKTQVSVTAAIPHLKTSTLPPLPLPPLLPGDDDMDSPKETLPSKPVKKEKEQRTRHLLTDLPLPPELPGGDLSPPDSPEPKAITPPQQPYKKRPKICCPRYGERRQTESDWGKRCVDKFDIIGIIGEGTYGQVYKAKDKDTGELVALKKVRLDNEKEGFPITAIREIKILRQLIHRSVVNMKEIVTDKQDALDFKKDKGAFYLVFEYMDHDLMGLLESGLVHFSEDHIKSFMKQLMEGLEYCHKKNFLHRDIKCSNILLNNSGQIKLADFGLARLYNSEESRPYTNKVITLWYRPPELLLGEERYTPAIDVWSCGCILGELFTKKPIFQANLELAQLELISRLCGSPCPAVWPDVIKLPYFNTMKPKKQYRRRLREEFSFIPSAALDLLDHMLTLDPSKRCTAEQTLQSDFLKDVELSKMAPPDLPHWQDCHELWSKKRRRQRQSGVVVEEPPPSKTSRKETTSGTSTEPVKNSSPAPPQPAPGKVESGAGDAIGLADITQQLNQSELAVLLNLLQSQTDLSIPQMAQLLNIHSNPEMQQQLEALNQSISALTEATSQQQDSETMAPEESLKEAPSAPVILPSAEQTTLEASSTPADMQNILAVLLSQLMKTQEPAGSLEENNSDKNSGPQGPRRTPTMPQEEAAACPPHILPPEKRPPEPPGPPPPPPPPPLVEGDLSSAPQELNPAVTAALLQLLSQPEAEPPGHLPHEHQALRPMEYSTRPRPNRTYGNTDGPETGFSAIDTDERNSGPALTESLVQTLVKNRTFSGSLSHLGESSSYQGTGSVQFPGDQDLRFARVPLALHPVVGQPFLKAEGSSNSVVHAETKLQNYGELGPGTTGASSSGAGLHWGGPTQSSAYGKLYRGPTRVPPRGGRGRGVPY
Chain of Tyrosine-protein kinase Yes (P07947 whole entry): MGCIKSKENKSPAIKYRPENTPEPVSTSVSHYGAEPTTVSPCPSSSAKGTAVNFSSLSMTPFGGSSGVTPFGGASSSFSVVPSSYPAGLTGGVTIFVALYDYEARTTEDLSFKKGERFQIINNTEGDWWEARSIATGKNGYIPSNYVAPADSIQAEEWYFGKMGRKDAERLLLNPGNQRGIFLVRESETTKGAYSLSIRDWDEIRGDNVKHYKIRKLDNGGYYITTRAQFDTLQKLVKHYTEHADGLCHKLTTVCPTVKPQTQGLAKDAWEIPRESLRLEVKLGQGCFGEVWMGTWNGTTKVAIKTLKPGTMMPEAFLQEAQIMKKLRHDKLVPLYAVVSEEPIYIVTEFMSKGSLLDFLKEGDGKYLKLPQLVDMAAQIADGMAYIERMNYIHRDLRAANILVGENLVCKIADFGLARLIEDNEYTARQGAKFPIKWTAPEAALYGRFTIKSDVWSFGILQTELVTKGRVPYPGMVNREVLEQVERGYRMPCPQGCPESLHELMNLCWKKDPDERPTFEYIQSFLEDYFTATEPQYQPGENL
Chain of Cyclin-dependent kinase 1 (P06493 whole entry): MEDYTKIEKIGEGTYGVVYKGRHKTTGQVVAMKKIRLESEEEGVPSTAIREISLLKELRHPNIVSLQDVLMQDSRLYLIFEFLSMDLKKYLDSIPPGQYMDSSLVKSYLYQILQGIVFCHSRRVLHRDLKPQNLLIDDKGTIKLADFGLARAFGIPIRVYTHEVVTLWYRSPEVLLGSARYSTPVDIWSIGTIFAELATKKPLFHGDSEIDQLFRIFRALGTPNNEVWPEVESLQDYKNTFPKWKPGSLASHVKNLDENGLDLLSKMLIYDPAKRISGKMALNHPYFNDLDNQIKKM

By Kd is commonly meant the equilibrium constant for the complex coming apart. Take `S=C(NCc1ccc2c(c1)OCO2)N1CCN(c2ncnc3c2oc2ccccc23)CC1` [AMUVATINIB]: the Kd (at Aurora kinase A; in experiment [1]; in experiment [2]; in experiment [3]; in experiment [4]; at ADP/ATP translocase 3) was > 30 µM (inactive) throughout. Also, the Kd in experiment [5] and in experiment [6] was > 30 µM (inactive) throughout.
With `O[C@H]1CC[C@H](Nc2ncc3nc(Nc4c(F)cc(F)cc4F)n([C@H]4CCOC4)c3n2)CC1` [TANZISERTIB], the Kd (at Aurora kinase A; in experiment [1]; in experiment [2]; in experiment [3]; in experiment [4]; on ADP/ATP translocase 3) was > 30 µM (inactive) throughout. In addition, the Kd in experiment [5] and in experiment [6] was > 30 µM (inactive) throughout.
With `COc1cccc2cc(-c3nc([C@H]4CC[C@H](C(=O)O)CC4)n4ncnc(N)c34)[nH]c12` [OSI-027], the Kd (on Aurora kinase A; in experiment [1]; in experiment [2]; in experiment [3]; in experiment [4]; at ADP/ATP translocase 3) was > 30 µM (inactive) each time. Moreover, the Kd in experiment [5] and in experiment [6] was > 30 µM (inactive) throughout.
`O=c1[nH]c([C@@H]2CCCN2)nc2c1oc1ccc(Cl)cc12`: the Kd (on Aurora kinase A; in experiment [1]; in experiment [2]; in experiment [3]; in experiment [4]; on ADP/ATP translocase 3) was > 30 µM (inactive) in each case. Also, the Kd in experiment [5] is 2.29 µM (active); in experiment [6], > 30 µM (inactive).
Turning to `c1cc(OCCN2CCCCC2)cc(-c2n[nH]c3ccc(-c4nc[nH]n4)cc23)c1` [CC-401], the Kd (at Aurora kinase A; in experiment [1]; in experiment [2]; in experiment [3]; in experiment [4]; on ADP/ATP translocase 3) was > 30 µM (inactive) throughout. Further, the Kd in experiment [5] and in experiment [6] was > 30 µM (inactive) throughout.
For `COc1cc2ncnc(Nc3ccc(O)cc3)c2cc1OC` [WHI-P131], the Kd (on Aurora kinase A; in experiment [1]; in experiment [2]; in experiment [3]; in experiment [4]; on ADP/ATP translocase 3) was > 30 µM (inactive) in each case. For the same compound, the Kd in experiment [5] and in experiment [6] was > 30 µM (inactive) in each case.
On to `CNC(=O)c1ccc(Nc2ncc(C(F)(F)F)c(NCc3nccnc3N(C)S(C)(=O)=O)n2)cc1` [DEFACTINIB], for which the Kd on Aurora kinase A is 0.622 µM (active); in experiment [1], 2.01 µM; in experiment [2] it was 0.73 µM (active); in experiment [3], > 30 µM (inactive); in experiment [4], > 30 µM (inactive); on ADP/ATP translocase 3, > 30 µM (inactive). In addition, the Kd in experiment [5] was 10.8 µM (active); in experiment [6], > 30 µM (inactive).
As for `CC[C@@](C)(Nc1ccnc(-c2c[nH]c3ncccc23)n1)C(=O)NCC(F)(F)F` [DECERNOTINIB], the Kd (on Aurora kinase A; in experiment [1]; in experiment [2]; in experiment [3]; in experiment [4]; on ADP/ATP translocase 3) was > 30 µM (inactive) each time. For the same compound, the values for the Kd in experiment [5] and in experiment [6] were 7.87 µM (active) and > 30 µM (inactive), respectively.
`O=S(=O)(c1cccc2c(O)nccc12)N1CCCNCC1` [HYDROXYFASUDIL]: the Kd (at Aurora kinase A; in experiment [1]; in experiment [2]; in experiment [3]; in experiment [4]; at ADP/ATP translocase 3) was > 30 µM (inactive) in each case. In addition, the Kd in experiment [5] and in experiment [6] was > 30 µM (inactive) in each case.
As for `CN1CCN(c2nc(C3=C(c4c[nH]c5ccccc45)C(=O)NC3=O)c3ccccc3n2)CC1` [SOTRASTAURIN], the Kd (on Aurora kinase A; in experiment [2]; in experiment [3]; in experiment [4]; on ADP/ATP translocase 3; in experiment [5]) was > 30 µM (inactive) throughout. In experiment [6], the Kd is > 30 µM (inactive).
As for `CCN1CCN(Cc2ccc(Nc3ncc(F)c(-c4cc(F)c5nc(C)n(C(C)C)c5c4)n3)nc2)CC1` [ABEMACICLIB], the Kd was > 30 µM (inactive) at Aurora kinase A; > 30 µM (inactive) in experiment [2]; > 30 µM (inactive) in experiment [3]; > 30 µM (inactive) in experiment [4]; > 30 µM (inactive) on ADP/ATP translocase 3; 1.72 µM (active) in experiment [5]. The Kd in experiment [6] is > 30 µM (inactive).
Consider `NC[C@@](O)(c1ccc(Cl)cc1)c1ccc(-c2cn[nH]c2)cc1` [AT-13148], for which the Kd (on Aurora kinase A; in experiment [1]; in experiment [2]; in experiment [3]; in experiment [4]; in experiment [5]) was > 30 µM (inactive) each time. The Kd in experiment [6] was > 30 µM (inactive).
With `O=S(=O)(c1cccc2cnccc12)N1CCCNCC1` [FASUDIL], the Kd is > 30 µM (inactive) on Aurora kinase A; 3.48 µM (active) in experiment [2]; > 30 µM (inactive) in experiment [3]; > 30 µM (inactive) in experiment [4]; > 30 µM (inactive) on ADP/ATP translocase 3; > 30 µM (inactive) in experiment [5]. In addition, the Kd in experiment [6] is > 30 µM (inactive).
